Results taken from US20210008048A1, “COMPOSITIONS AND METHODS FOR CANCER TREATMENT” (Dana-Farber Cancer Institute, Inc., priority 2018, published 2021).
“And” between values parts separate entries of the source, which are not always exact repeats. Equal values may be shown once.

Columns and labels:
[1] = cited from earlier work
TLR7 [2] = biological target: T1, TLR7 (Homo sapiens, UniProt Q9NYK1); conditions: TLR7-transfected HEK293 cells, cited from earlier work
T1 construct: expressed in transfected cells; host or cells: HEK293
T1 sequence (Q9NYK1 27-1049): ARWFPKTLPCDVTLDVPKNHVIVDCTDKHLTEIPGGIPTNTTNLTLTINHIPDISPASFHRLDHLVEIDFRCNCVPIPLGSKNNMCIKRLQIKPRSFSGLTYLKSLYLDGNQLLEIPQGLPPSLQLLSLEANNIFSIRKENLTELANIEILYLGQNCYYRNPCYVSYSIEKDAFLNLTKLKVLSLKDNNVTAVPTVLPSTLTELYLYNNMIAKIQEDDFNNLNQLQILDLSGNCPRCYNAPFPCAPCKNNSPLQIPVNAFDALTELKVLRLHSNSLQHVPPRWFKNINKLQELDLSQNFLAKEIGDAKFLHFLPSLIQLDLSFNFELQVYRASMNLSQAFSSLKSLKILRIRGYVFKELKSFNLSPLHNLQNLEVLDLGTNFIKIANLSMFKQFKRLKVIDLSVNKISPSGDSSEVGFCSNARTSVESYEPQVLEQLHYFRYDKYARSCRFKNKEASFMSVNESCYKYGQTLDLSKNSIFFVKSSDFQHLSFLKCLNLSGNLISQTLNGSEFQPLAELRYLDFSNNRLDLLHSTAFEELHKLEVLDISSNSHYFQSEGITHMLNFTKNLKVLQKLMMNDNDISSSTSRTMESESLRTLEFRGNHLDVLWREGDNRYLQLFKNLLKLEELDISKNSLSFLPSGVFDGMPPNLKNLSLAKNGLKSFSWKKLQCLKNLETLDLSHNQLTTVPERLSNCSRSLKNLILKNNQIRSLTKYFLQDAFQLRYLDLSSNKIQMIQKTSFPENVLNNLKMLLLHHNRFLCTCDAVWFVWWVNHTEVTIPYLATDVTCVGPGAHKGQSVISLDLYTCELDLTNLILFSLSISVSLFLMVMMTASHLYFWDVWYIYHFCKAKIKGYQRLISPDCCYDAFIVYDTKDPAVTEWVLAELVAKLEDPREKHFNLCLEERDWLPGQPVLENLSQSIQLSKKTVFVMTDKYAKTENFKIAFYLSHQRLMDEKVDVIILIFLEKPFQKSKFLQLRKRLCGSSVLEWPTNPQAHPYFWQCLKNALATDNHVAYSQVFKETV

TLR8 [3] = biological target: T2, TLR8 (Homo sapiens, UniProt Q9NR97); conditions: even at high concentrations (>10 μg/ml); cited from earlier work
T2 construct: expressed in transfected cells; host or cells: HEK293
T2 sequence (Q9NR97 27-1041): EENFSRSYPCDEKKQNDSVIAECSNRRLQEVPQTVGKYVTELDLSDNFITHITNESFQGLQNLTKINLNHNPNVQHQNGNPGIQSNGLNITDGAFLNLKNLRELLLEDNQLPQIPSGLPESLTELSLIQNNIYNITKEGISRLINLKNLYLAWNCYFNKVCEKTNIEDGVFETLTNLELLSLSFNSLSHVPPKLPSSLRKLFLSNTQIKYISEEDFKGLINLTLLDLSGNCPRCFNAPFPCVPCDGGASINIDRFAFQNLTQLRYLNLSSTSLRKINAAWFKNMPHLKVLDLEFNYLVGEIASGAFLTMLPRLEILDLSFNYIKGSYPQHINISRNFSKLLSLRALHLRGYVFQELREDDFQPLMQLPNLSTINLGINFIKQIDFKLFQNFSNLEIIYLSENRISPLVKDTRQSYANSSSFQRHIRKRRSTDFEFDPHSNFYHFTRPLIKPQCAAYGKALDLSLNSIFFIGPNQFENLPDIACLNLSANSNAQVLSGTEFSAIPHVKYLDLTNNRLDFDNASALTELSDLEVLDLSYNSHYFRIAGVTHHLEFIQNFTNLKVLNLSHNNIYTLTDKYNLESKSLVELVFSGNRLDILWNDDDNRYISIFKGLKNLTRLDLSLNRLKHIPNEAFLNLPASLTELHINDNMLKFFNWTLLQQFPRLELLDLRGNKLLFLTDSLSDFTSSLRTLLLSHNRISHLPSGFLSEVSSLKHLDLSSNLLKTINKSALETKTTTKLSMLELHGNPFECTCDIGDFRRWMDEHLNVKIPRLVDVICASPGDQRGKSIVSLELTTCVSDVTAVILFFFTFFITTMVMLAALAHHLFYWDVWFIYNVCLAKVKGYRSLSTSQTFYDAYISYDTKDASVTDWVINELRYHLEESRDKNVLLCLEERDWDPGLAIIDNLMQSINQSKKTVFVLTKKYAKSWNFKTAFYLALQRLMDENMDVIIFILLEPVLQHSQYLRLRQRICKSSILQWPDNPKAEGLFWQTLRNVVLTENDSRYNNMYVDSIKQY

TLR7 [4] = biological target: T1, TLR7; conditions: concentrations as low as; cited from earlier work
TLR8 [5] = biological target: T2, TLR8; conditions: TLR8-transfected HEK293 cells, cited from earlier work
[6] = tested on: 4T1-Luc2 breast cancer cells; experiment: Survival after resection of orthotopic 4T1-Luc2 tumors with a loaded hydrogel implanted at the resection site; assay type: in vivo, female BALB/cJ mice; conditions: crosslinked hyaluronic acid hydrogel loaded with the agent placed in tumor resection site on day 10 post-tumor inoculation; extended local release; versus empty hydrogel
Protocol: The hydrogels for FIG. 1 were prepared according to the methods described for hydrogel 1 in Table 1. 120 μL of a hyaluronic acid solution (2.0% w/v GLYCOSIL) was pipetted into a mold. One mg of a p38 MAPK inhibitor (e.g., losmapimod (Selleckchem)) was dissolved in 10 μL DMSO, and this solution was added to the hyaluronic acid solution in the mold. Following mixing to create a homogeneous distribution of the payload, 30 μL of a PEG-diacrylate crosslinker solution (12.5% w/v EXTRALINK) was pipetted into the mold. The crosslinked hydrogel solidified in the mold over the course of a few minutes. Female BALB/cJ mice were inoculated orthotopically with 4T1-Luc2 breast cancer cells in their fourth mammary fat pad. On day 10 post-tumor inoculation, tumors (˜100 mm^3) were resected, and a hydrogel (e.g., a crosslinked hyaluronic acid hydrogel) loaded with a p38 MAPK inhibitor (e.g., losmapimod) was placed in the tumor resection site. Empty hydrogel was used as a negative control.
The hydrogels for FIG. 2 were prepared according to the methods described for hydrogel 1 in Table 1. 120 μL of a hyaluronic acid solution (2.0% w/v GLYCOSIL) was pipetted into a mold. Five hundred μg (40 μL) of an anti-IL-1β antibody (e.g., clone B122 (BioXCell)) was added to the hyaluronic acid solution in the mold. […]

In the case of CCOCc1nc2c(N)nc3ccccc3c2[nH]1 [CL097], the water solubility [1] is listed as ≥ 20 mg/mL.

In the case of CCCCNc1nc(N)c2nc(O)n(Cc3ccc(C(=O)NCC(=O)O)cc3)c2n1 [CL264], the “concentration inducing NF-κB activation” value (TLR7 [2]) is listed as 0.1 µM, the “concentration triggering NF-κB activation, times less than imiquimod” value (TLR7 [2]; relative to imiquimod) is listed as 5-10 times and the TLR8 stimulation (TLR8 [3]) is listed as “does not stimulate TLR8”.

For CCCCNc1nc(N)c2nc(O)n(Cc3ccc(C(=O)NCC(=O)NCCCNCCCCNCCCN)cc3)c2n1 [CL307, N1-glycinyl[4-((6-amino-2-(butylamino)-8-hydroxy-9H-purin-9-yl)methyl)benzoyl] spermine], the “concentration inducing robust NF-κB activation” value (TLR7 [4]) is given as 20 nM and 10 ng/ml.

In the case of CCOC(=O)C1=Cc2ccc(-c3cccc(C#N)c3)cc2N=C(N)C1 [TL8-506], the “potency in inducing NF-κB activation relative to CL075” value (TLR8 [5]; more potent than CL075) is listed as ~25 × and the “potency in inducing NF-κB activation relative to R848” value (TLR8 [5]; more potent than R848) is listed as ~50 ×.

For Cc1c(F)cc(C(=O)NC2CC2)cc1-c1ccc(C(=O)NCC(C)(C)C)cn1 [losmapimod], the “survival (Kaplan-Meier)” value [6] was “Prolonged survival benefit”.
